Experimental data reported in patent publication US10899815B2, “Compositions and methods of using islet neogenesis peptides and analogs thereof” (SHENZHEN HIGHTIDE BIOPHARMACEUTICAL, LTD., priority 2013, dated 2021).
Ends that are not written are not given here.

Legend:
[1] = Peptide stability in mouse plasma; type: in vitro ADME; conditions: 100 μg/mL, 37° C., LC-MS/MS, FIG. 3 and FIG. 5
Experimental: The stability of peptides was also tested in mouse and human plasma. Briefly, a certain amount of peptides and eucatropine powder (positive control) was accurately weighed. Test compounds were dissolved in 50% methanol-water solution and diluted to 20 mg/mL, and eucatropine was dissolved in dimethylsulfoxide (DMSO) and diluted to 10 mM, as a stock solution. Eucatropine stock solution was diluted to 0.2 mM with DMSO as a working solution. A stop reagent was prepared containing 200 ng/mL midazolam and tolbutamide in acetonitrile. A volume of 300 μL of stop solution was added to each well of a 96-well deep-well plate placed on ice beforehand.
For the stability studies, peptides and eucatropine were spiked into plasma respectively, mixed well, and then 100 μL of each mixture solution was transferred into the pre-cooled stop reagent as 0 time point sample. The remaining mixtures were incubated in a 37° C. water bath with shaking at 100 rpm (n=2). The final incubation concentration was 1 μM for eucatropine and 100 μg/mL for all test compounds.
At desired time points, 100 μl, of incubation mixture was transferred to the stop reagent to precipitate proteins. Samples were vortexed and centrifuged at RCF 5000-g for 10 minutes, and supernatant was transferred to a test plate. The samples were analyzed by LC-MS/MS.
Slope was calculated by plotting the natural logarithm of the percentage or remaining amount of test compounds and time, and T12 was calculated in accordance with the following formula.
For stability in mouse plasma, the incubation time was 0, 5, 15, 30 and 60 min for Peptide 1 and eucatropine, 0, 15, 30, 60, 120, 240 and 480 min for Peptide 12, Peptide 16 and Peptide 29.
In another stability study in mouse plasma, the incubation time was 0, 30, 60 and 120 min for Peptide 2 and eucatropine; 0, 30, 60, 120, 240 and 960 min for Peptide 52 and Peptide 54.

[2] = system: STZ induced diabetic mice model; assay: Efficacy in streptozotocin (STZ) induced diabetic mice model; type: in vivo, C57BL/6J mice; conditions: for body weight or pancreas weight: 5 mg/kg or 25 mg/kg for 20 days
Experimental: After acclimatization in the animal facility for one week, 6-8 weeks old C57BL/6J mice were administered low dose STZ at 40 mg/kg in citrate buffer for 5 consecutive days to establish a TID animal model. Mice with blood glucose greater than 16.7 mmol/L at 5 days post last STZ injection were included in the study. These mice were then treated with INGAP-PP (Peptide 1) or Peptide 7 at the closes of 5 mg/kg (2.5 mg/kg, bid (twice a day)) or 25 mg/kg (12.5 mg/kg, bid) for 20 days before sacrifices. Two additional groups of diabetic mice were administered either saline or a peptide (Peptide 3) composed of a scrambled sequence of amino acids from Peptide 1 as control groups. Blood glucose and insulin levels were measured, and 20 days post the last dosing of test agents, an oral glucose tolerance test (OGTT) was performed in 6 hour fasted animals to determine the effect of Peptide 1 and Peptide 7. Blood samples obtained from the tail cut for glucose determination were detected with an ACCU-CHEK™ glucometer (Roche, ACCU-CHEK® Active), and insulin levels were determined with Rat/Mouse Insulin Elisa kit (Millipore, Billerica, Mass. USA). For the OGTT, after the measurement of the basal glucose concentration (T=−30 min), mice received an oral glucose challenge at 2 g/kg and glucose values were determined by glucometer at 0, 15, 30, 60, 90 and 120 min.

normal C57BL/6J mice = assay: Induction of small β-cell clusters in normal mice; type: in vivo; conditions: for number of islets, islet size ranging from 2.1 to 0.7: normal female C57BL/6J mice, 25 mg/kg per day for 10 days, islet size as Log [μm^2], FIG. 7; for body weight, blood glucose, plasma insulin, pancreas insulin, or pancreas weight: compared to saline group
Experimental: After a 1-week acclimation, C57BL/6J female mice were randomly divided into 4 groups. The two control groups received either 10 mL/kg sterile normal saline (n=4) or scrambled peptide (Peptide 3, 25 mg/kg) (n=5) via subcutaneous injection for 10 days. The other two groups received INGAP-PP (Peptide 1) or INGAP-PP analog Peptide 7 at a dose of 25 mg/kg per day respectively (n=7 per group) for the same period. Body weight and 6 hour fasting blood glucose were measured before treatment and after the last dosing of treatment. Plasma and pancreatic insulin were also measured at the end of the study. On day 11, the pancreas was removed from each animal, cleared of fat and lymph nodes, weighed, and fixed in 10% neutral buffered formalin (NBF) for no longer than 24 hours before processing for morphometric analysis.
Immunohistochemistry analysis was used to determine pancreatic islet size distribution.

pancreatic islets = assay: Glucose-stimulated insulin secretion (GSIS) of isolated islets; type: cell-based, Sprague-Dawley (SD) rats; conditions: rat islets, 12.0 mM glucose, 10 μg/mL peptide (GLP-1 100 nM), 60 min, FIG. 8
Experimental: The pancreases were procured from male adult Sprague-Dawley (SD) rats. After 7 days acclimation, the animals were sacrificed by cervical dislocation and the entire pancreas was removed and digested with collagenase to isolate islets. After digestion, islets were maintained at 37° C. in RPMI 1640 (Carlsbad, Calif., USA) pH 7.4, containing 10% (v/v) fetal calf serum, 1% penicillin/streptomycin, and 10 mM glucose in a humid atmosphere (5% CO2/95% O2), without the addition of any compound (control), or with the addition of 100 nM glucagon like peptide-1 (GLP-1); or 10 μg/mL Peptide 1, Peptide 12, or Peptide 16, as summarized in Table 4 below. Cultured islets were rinsed in Krebs-Ringer bicarbonate buffer (KRB), pH 7.4, previously gassed with a mixture CO2/O2 (5/95%), and pre-incubated in 1.0 ml KRB containing 0.5% (w/v) BSA and 1.5 mM glucose at 37° C. for 45 min. After this period, groups of 5 islets were incubated in 0.6 ml KRB with the addition of 1.5 or 12.0 mM glucose, with or without the addition of peptides for 60 min. At the end of the incubation period, aliquots of the medium were collected for insulin quantitation.

Pharmacokinetics in rat = type: in vivo, Sprague-Dawley (SD) rats; conditions: rat, in vivo, 25 mg/kg
Experimental: After 7 days acclimation, male Sprague-Dawley (SD) rats weighing 210-250 g, or male C57BL/6 mice, weighing 19-24 g, in good health were used in the study. Peptide 1, Peptide 12 and Peptide 16 were dissolved in sterile normal saline and then they were injected via subcutaneous (sc) bolus or intravenous (iv) bolus at the dose level of 25 mg/kg. Three animals in each group were used for blood collection at the time point of 5 min, 15 min, 30 min, 1 h, 2 h, 4 h, 6 h, 8 h and 24 h post-dose. Blood samples (approximately 400 μL) were collected and placed into tubes containing EDTA-K2 and centrifuged at 8000 rpm for 6 minutes at 4° C. to separate plasma front the samples. The resulting plasma was stored frozen at −80° C. until being analyzed. Plasma concentrations of peptides were determined using tandem mass spectrometry (LC-MS/MS) analysis. A non-compartmental module of WinNonlin® Professional 5.2 (Pharsight; St. Louis, Mo.), was used to calculate PK parameters. The abbreviation AUC(0-t) represents area under the curve front the time of dosing to the time of the last observation, the AUC(0-∞) represents area under the curve from the time of dosing to infinity, and the Cmax represents maximum concentration detected.

ARIP cells = assay: ARIP cell proliferation (BrdU ELISA / CellTiter-Glo); type: cell-based, rat; conditions: 100 nM peptide, FIG. 1
Experimental: To measure cell proliferation, a bromodeoxyuridine (BrdU) ELISA assay was performed. Briefly, ARIP cells (ATCC (American Type Culture Collection), Manassas, Va. USA), a rat pancreatic ductal cell line, were cultured in F-12K medium (Gibco-BRL, Gaithersburg, Md., USA) containing 10% fetal bovine serum (FBS; HyClone, Thermo Fisher Scientific Inc.; Waltham, Mass. USA), 100 μg/ml streptomycin and 100 μg/ml penicillin in a cell incubator. ARIP cells were seeded into 96-well culture plates at 8000 or 0 (as blank control) cells/well in a volume of 50 μl cell culture medium and incubated overnight for the following experiments. On the second day, after replacing the medium with medium without serum, 50 μl serum-free cell culture medium containing test peptides at a series concentrations (final concentrations were 10 μM, 5 μM, 1 μM, 500 nM, 100 nM, 50 nM, 10 nM and 1 nM) were added to seeded cells. Medium without compound was added to negative control and background control wells. […] The absorbance at 450 nm (reference wavelength 690 nm) on an EnVision™ plate reader (Perkin Elmer, Boston, Mass.) within 5 min. after adding the stop solution was measured.
To test for cell viability, a CellTiter-Glo™ (CTG) assay (Promega, Madison, Wis.) was performed. […] Luminescence signal was quantified on an EnVision™ plate reader after a 10 minute incubation at room temperature.

[3] = Peptide stability in culture medium; type: physicochemical; conditions: F-12K medium, 0.25 mg/mL, 37° C., 0-72 hours, HPLC, FIG. 2
Experimental: To determine the stability of peptides in culture medium, a certain amount of selected peptides was accurately weighed and dissolved in distilled water to 5 mg/mL as a stock solution. The stock solution was diluted to 0.25 mg/mL with F-12K medium (Gibco-BRL, Gaithersburg, Md., USA) as working solution. A volume of 100 μL of each working solution was transferred into individual sample vials. The sample vials were incubated in a 37° C. incubator for 0, 24, 48 and 72 hours before being analyzed and quantitated by HPLC.

[4] = normal mice, 25 mg/kg sc for 10 days

With “Ac-IGLHDPTQGTEPNGE-OH [Peptide 54, Ac-IGLHDPTQGTEPNGE-OH]” the “stability in mouse plasma” value [1] was “good stability in mouse plasma and were significantly more stable than HIP”.

In the case of “Ac-IGLHDPTQGTEPAGE-OH [Peptide 52, Ac-IGLHDPTQGTEPAGE-OH]”, the “stability in mouse plasma” value [1] is reported as “good stability in mouse plasma and were significantly more stable than HIP”.

For “H-IGLHDPSHGTLPNGS-OH [Peptide 1, H-IGLHDPSHGTLPNGS-OH, reference compound]”, the “body weight or pancreas weight” value [2] was “did not affect”, the “number of islets, islet size ranging from 2.1 to 0.7” value (normal C57BL/6J mice) was “only observed in islet size of 2.1” and the “body weight, blood glucose, plasma insulin, pancreas insulin, or pancreas weight” value (shortened to “body weight, blood glucose”) (normal C57BL/6J mice; [4]) was “did not affect”. For the same substance, the “glucose-stimulated insulin secretion versus islets without peptides” value (pancreatic islets) was “no stimulation”.

In the case of “Ac-IGLHDPSHGTLPAGS-OH [Peptide 12, Ac-IGLHDPSHGTLPAGS-OH]”, the “glucose-stimulated insulin secretion versus islets without peptides” value (pancreatic islets) is reported as “released significantly more insulin” and the “PK properties (AUC and Cmax) compared to INGAP-PP” value (Pharmacokinetics in rat) is reported as “marked improved PK properties”.

For “GLP-1: Glucagon like peptide-1, positive control at 100 nM in GSIS (HAEGTFTSDVSSYLEGQAAKEFIAWLVKGR; ends and bridges not checked; UniProt P01275 98-127, looked up) [reference compound]”, the “glucose-stimulated insulin secretion versus islets without peptides” value (pancreatic islets) was “released significantly more insulin”.

For “Ac-IGLHDPSHGTLPAGS-NH2 [Peptide 29, Ac-IGLHDPSHGTLPAGS-NH2]”, the “stability in mouse plasma” value [1] was “good stability in mouse plasma and were more stable than INGAP-PP”.

For “H-IGLHDPSHGTLPAGS-OH [Peptide 7, H-IGLHDPSHGTLPAGS-OH]”, the “percentage increase in cell number” value (ARIP cells) was “significantly higher percentage increase in cell number”, the “stability in culture medium” value [3] was “significantly more stable than INGAP-PP peptide” and the “body weight or pancreas weight” value [2] was “did not affect”. For the same substance, the plasma insulin levels ([2]; 25 mg/kg dose group, end of 20-day period, FIG. 6B) was “significantly different from saline controls and almost restored to the level of the naive group”, the “glucose tolerance (OGTT)” value ([2]; OGTT 2 g/kg glucose, day 21, FIG. 6C) was “improved glucose tolerance” and the “number of islets, islet size ranging from 2.1 to 0.7” value (normal C57BL/6J mice) was “increased significantly”. The “body weight, blood glucose” value (normal C57BL/6J mice; [4]) was “did not affect”.

In the case of H-IGLHAPSHGTLPAGS-OH [Peptide 8], the “stability in culture medium” value [3] is reported as “significantly more stable than INGAP-PP peptide”.

For “H-SHPNGSGTIGLHDPL-OH [Peptide 3, H-SHPNG SGTIG LHDPL-OH]”, the “all parameters measured, versus normal saline” value (normal C57BL/6J mice; [4]) was “no difference” and the “body weight, blood glucose” value (normal C57BL/6J mice; [4]) was “did not affect”.
